Laboratory results taken from patent publication US8124637B2, “Anthra [1, 2-d]imidazole-6,11-dione derivatives, preparation method and application thereof” (National Defense Medical Center, priority 2010, dated 2012).

Assays:
[1] = tested on: hTERT promoter (PhTERT) expression; assay: SEAP assay (PhTERT-SEAP reporter, H1299); type: cell-based, human; details: Homo sapiens, NCI-H1299, PhTERT-SEAP (H1299); for activity at 1 µM: read-out: Relative SEAP activity (%); for activity at 10 µM / activity at 100 µM: read-out: Relative SEAP activity (%) (converted)
How it was run: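 Stable H1299 clones carrying the hTERT promoter (−3338 to +1) driving SEAP were treated with varying drug amounts for 24 h at 37° C. Heat-treated media (65° C, 10 min) were assayed with 12 mM p-nitrophenyl phosphate in diethanolamine buffer; rate of A405 increase gave SEAP activity.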

[2] = tested on: ACHN; assay: NCI 60-cell drug screen, one dose; type: cell-based, human; details: Renal Cancer ACHN, 1.00E−5 Molar
Protocol: (§1) In brief, cellular protein levels were determined after 48 hours of drug exposure by sulforhodamine B colorimetry.
(§2) The screening system in United State National Cancer Institute (NCI) consists of 60 kinds of different human cancer cells, which can be used to assay the growth-inhibiting ability or cell toxicity of a compound against various cancer and tumor at a certain concentration. The NCI had selected 6 compounds synthesized above, and performed cell toxicity assay against 60 kinds of cancer cell strains (Table 2) (DTP Human Tumor Cell Line Screen), in which each compound was assayed at a certain concentration to observe its inhibition ability or cell toxicity against various kinds of cancer and tumor.

[3] = tested on: BT-549; assay: NCI 60-cell drug screen, one dose; type: cell-based, human; details: Breast Cancer BT-549, 1.00E−5 Molar
Protocol: as §1, §2

[4] = tested on: DU145; assay: NCI 60-cell drug screen, one dose; type: cell-based, human; details: Prostate Cancer DU145, 1.00E−5 Molar
Protocol: as §1, §2

[5] = tested on: EKVX; assay: NCI 60-cell drug screen, one dose; type: cell-based, human; details: Non-Small Cell Lung Cancer EKVX, 1.00E−5 Molar
Protocol: as §1, §2

[6] = tested on: HCT-116; assay: NCI 60-cell drug screen, one dose; type: cell-based, human; details: Colon Cancer HCT-116, 1.00E−5 Molar
Protocol: as §1, §2

[7] = tested on: HCT-15; assay: NCI 60-cell drug screen, one dose; type: cell-based, human; details: Colon Cancer HCT-15, 1.00E−5 Molar
Protocol: as §1, §2

[8] = tested on: HOP-62; assay: NCI 60-cell drug screen, one dose; type: cell-based, human; details: Non-Small Cell Lung Cancer HOP-62, 1.00E−5 Molar
Protocol: as §1, §2

[9] = tested on: HOP-92; assay: NCI 60-cell drug screen, one dose; type: cell-based, human; details: Non-Small Cell Lung Cancer HOP-92, 1.00E−5 Molar
Protocol: as §1, §2

[10] = tested on: HS 578-T; assay: NCI 60-cell drug screen, one dose; type: cell-based, human; details: Breast Cancer HS 578-T, 1.00E−5 Molar
Protocol: as §1, §2

[11] = tested on: KM12; assay: NCI 60-cell drug screen, one dose; type: cell-based, human; details: Colon Cancer KM12, 1.00E−5 Molar
Protocol: as §1, §2

[12] = tested on: LOX IMVI; assay: NCI 60-cell drug screen, one dose; type: cell-based, human; details: Melanoma LOX IMVI, 1.00E−5 Molar
Protocol: as §1, §2

[13] = tested on: MCF7; assay: NCI 60-cell drug screen, one dose; type: cell-based, human; details: Breast Cancer MCF7, 1.00E−5 Molar
Protocol: as §1, §2

[14] = tested on: MDA-MB-435; assay: NCI 60-cell drug screen, one dose; type: cell-based, human; details: Melanoma MDA-MB-435, 1.00E−5 Molar
Protocol: as §1, §2

[15] = tested on: MDA-MB-468; assay: NCI 60-cell drug screen, one dose; type: cell-based, human; details: Breast Cancer MDA-MB-468, 1.00E−5 Molar
Protocol: as §1, §2

[16] = tested on: NCI-H23; assay: NCI 60-cell drug screen, one dose; type: cell-based, human; details: Non-Small Cell Lung Cancer NCI-H23, 1.00E−5 Molar
Protocol: as §1, §2

[17] = tested on: NCI-H522; assay: NCI 60-cell drug screen, one dose; type: cell-based, human; details: Non-Small Cell Lung Cancer NCI-H522, 1.00E−5 Molar
Protocol: as §1, §2

[18] = tested on: OVCAR-4; assay: NCI 60-cell drug screen, one dose; type: cell-based, human; details: Ovarian Cancer OVCAR-4, 1.00E−5 Molar
Protocol: as §1, §2

[19] = tested on: OVCAR-5; assay: NCI 60-cell drug screen, one dose; type: cell-based, human; details: Ovarian Cancer OVCAR-5, 1.00E−5 Molar
Protocol: as §1, §2

[20] = tested on: SF-268; assay: NCI 60-cell drug screen, one dose; type: cell-based, human; details: CNS Cancer SF-268, 1.00E−5 Molar
Protocol: as §1, §2

[21] = tested on: SF-539; assay: NCI 60-cell drug screen, one dose; type: cell-based, human; details: CNS Cancer SF-539, 1.00E−5 Molar
Protocol: as §1, §2

[22] = tested on: SK-MEL-28; assay: NCI 60-cell drug screen, one dose; type: cell-based, human; details: Melanoma SK-MEL-28, 1.00E−5 Molar
Protocol: as §1, §2

[23] = tested on: SK-MEL-5; assay: NCI 60-cell drug screen, one dose; type: cell-based, human; details: Melanoma SK-MEL-5, 1.00E−5 Molar
Protocol: as §1, §2

[24] = tested on: SK-OV-3; assay: NCI 60-cell drug screen, one dose; type: cell-based, human; details: Ovarian Cancer SK-OV-3, 1.00E−5 Molar
Protocol: as §1, §2

[25] = tested on: SNB-19; assay: NCI 60-cell drug screen, one dose; type: cell-based, human; details: CNS Cancer SNB-19, 1.00E−5 Molar
Protocol: as §1, §2

[26] = tested on: SW-620; assay: NCI 60-cell drug screen, one dose; type: cell-based, human; details: Colon Cancer SW-620, 1.00E−5 Molar
Protocol: as §1, §2

[27] = tested on: 60 kinds of different human cancer cells; assay: NCI 60-cell drug screen, one dose, whole panel; type: cell-based; details: mean over the tested cell lines, 1.00E−5 Molar
Protocol: as §1, §2

| Compound | activity at 1 µM [1] [%] | activity at 10 µM [1] [%] | activity at 100 µM [1] [%] | Growth Percent [2] [%] | Growth Percent [3] [%] | Growth Percent [4] [%] | Growth Percent [5] [%] | Growth Percent [6] [%] | Growth Percent [7] [%] | Growth Percent [8] [%] | Growth Percent [9] [%] | Growth Percent [10] [%] | Growth Percent [11] [%] | Growth Percent [12] [%] | Growth Percent [13] [%] | Growth Percent [14] [%] | Growth Percent [15] [%] | Growth Percent [16] [%] | Growth Percent [17] [%] | Growth Percent [18] [%] | other results |
| --- | --- | --- | --- | --- | --- | --- | --- | --- | --- | --- | --- | --- | --- | --- | --- | --- | --- | --- | --- | --- | --- |
| CCN(CC)Cc1nc2ccc3c(c2[nH]1)C(=O)c1ccccc1C3=O [CL04, 2-((diethylamino)methyl)-1H-anthra[1,2-d]imidazole-6,11-dione] | 91.2 ± 4.38 | < 50 | 0.13 | 48.41 | 105.50 | 73.54 | 73.22 | 48.22 | 65.75 | 85.27 | 56.11 | 70.37 | 76.89 | 61.98 | 51.13 | 88.53 | 54.46 | 75.96 | 73.14 | 65.69 | Growth Percent [19]: 96.50%; Growth Percent [20]: 74.04%; Growth Percent [21]: 85.26%; Growth Percent [22]: 92.41%; Growth Percent [23]: 68.20%; Growth Percent [24]: 86.81%; Growth Percent [25]: 75.06%; Growth Percent [26]: 60.46%; Growth Percent, Mean [27]: 69.66% |
| CN(CCc1ccccn1)Cc1nc2ccc3c(c2[nH]1)C(=O)c1ccccc1C3=O [CL07, 2-((N-methyl-2-(pyridin-2-yl)ethanamino)methyl)-1H-anthra[1,2-d]imidazole-6,11-dione] | 96.5 ± 5.53 | < 50 | -3.16 | 80.20 | 114.38 | 83.70 | 82.24 | 83.56 | 80.78 | 105.37 | 101.41 | 108.96 | 89.03 | 89.67 | 69.06 | 93.53 | 77.09 | 90.81 | 86.39 | 80.99 | Growth Percent [19]: 109.14%; Growth Percent [20]: 85.87%; Growth Percent [21]: 102.32%; Growth Percent [22]: 97.01%; Growth Percent [23]: 75.48%; Growth Percent [24]: 106.7%; Growth Percent [25]: 87.77%; Growth Percent [26]: 100.52%; Growth Percent, Mean [27]: 89.07% |
| O=C1c2ccccc2C(=O)c2c1ccc1nc(CN3CCCCC3)[nH]c21 [CL16, 2-((piperidin-1-yl)methyl)-1H-anthra[1,2-d]imidazole-6,11-dione] | 75.8 ± 26.9 | < 50 | 6.78 | 47.11 | 109.47 | 74.90 | 77.14 | 62.12 | 54.20 | 92.69 | 80.97 | 50.98 | 77.40 | 62.99 | 42.74 | 102.02 | 58.32 | 81.32 | 84.14 | 65.27 | Growth Percent [19]: 101.70%; Growth Percent [20]: 58.46%; Growth Percent [21]: 82.47%; Growth Percent [22]: 107.08%; Growth Percent [23]: 65.73%; Growth Percent [24]: 92.54%; Growth Percent [25]: 76.33%; Growth Percent [26]: 71.72%; Growth Percent, Mean [27]: 75.35% |
| CN1CCN(Cc2nc3ccc4c(c3[nH]2)C(=O)c2ccccc2C4=O)CC1 [CL24, 2-((4-methylpiperazin-1-yl)methyl)-1H-anthra[1,2-d]imidazole-6,11-dione] | 106 ± 2.94 | 23.2 | 6.23 | 33.08 | 100.53 | 60.08 | 65.93 | 27.73 | 44.98 | 60.84 | 9.17 | 51.48 | 55.51 | 43.47 | 36.71 | 86.53 | 71.59 | 72.97 | 64.61 | 50.98 | Growth Percent [19]: 97.72%; Growth Percent [20]: 51.16%; Growth Percent [21]: 63.88%; Growth Percent [22]: 96.38%; Growth Percent [23]: 77.46%; Growth Percent [24]: 74.33%; Growth Percent [25]: 65.60%; Growth Percent [26]: 44.22%; Growth Percent, Mean [27]: 59.85% |
| O=C1c2ccccc2C(=O)c2c1ccc1nc(CN3CCN(c4ccccc4)CC3)[nH]c21 [CL27, 2-((4-phenylpiperazin-1-yl)methyl)-1H-anthra[1,2-d]imidazole-6,11-dione] | 92.23 ± 0.78 | 76.7 | 5.83 | 86.32 | 110.22 | 90.69 | 88.70 | 78.28 | 74.39 | 98.40 | 178.61 | 80.56 | 85.80 | 95.76 | 66.08 | 101.37 | 72.75 | 92.11 | 73.61 | 67.72 | Growth Percent [19]: 107.63%; Growth Percent [20]: 80.44%; Growth Percent [21]: 112.36%; Growth Percent [22]: 127.46%; Growth Percent [23]: 74.84%; Growth Percent [24]: 98.95%; Growth Percent [25]: 103.62%; Growth Percent [26]: 90.92%; Growth Percent, Mean [27]: 90.15% |
